Data set [1] in a line: Stability Against Metabolism by Liver Microsome. The note with it: dog liver microsome, NADPH-producing system, phosphate buffer pH 7.4, 37° C.; n=2, mean. The format is in vitro ADME. As for the experimental part: Stability Against Metabolism by Liver Microsome:
A dog liver microsome was prepared by a standard method. In a phosphate buffer (pH 7.4), a test substance, a liver microsome and NADPH-producing system [0.5 mM, β-NADP (NADP: nicotinamide adenine dinucleotide phosphate), 1 mM magnesium chloride, 5 mM glucose-6-phosphate, 150units/ml glucose-6-phosphate dehydrogenase (each as final concentration in reaction system)] were mixed and incubated at 37° C. The concentration of the test substance after the discontinuation of the reaction was determined by high pressure liquid chromatography to obtain % residue (n=2, mean).
On the technique in general: Microsomes from liver hold many membrane-bound enzymes, among them those of drug oxidation.

In a further data set the test system is Rat Adjuvant Arthritis. Briefly: Action Against Rat Adjuvant Arthritis (paw swelling suppression). It counts as in vivo, rat (male Lewis). The note with it: 3.13 mg/kg once daily for 14 days, suspension in 0.5% methyl cellulose; left hind paw volume at day 14; N=6; **: p < 0.05 vs control (Dunnett's test).

On to `COc1ccc(-c2c(Cl)c(CN3C(=O)CCC3=O)nc3sc4c(c23)CCNC4)cc1` [Example 1, 3-chloro-5,6,7,8-tetrahydro-4-(4-methoxyphenyl)-2-(succinimidomethyl)thieno[2,3-b:5,4-c']dipyridine], for which the “Residue (%)” value in data set [1] stood at 90.5%. Moreover, the “Swelling suppression rate (%)” value with Rat Adjuvant Arthritis was 94%.

With `COc1ccc(-c2c(Cl)c(CN3C(=O)CCC3=O)nc3sc4c(c23)CCNC4)cc1OC` [Example 2, 3-chloro-4-(3,4-dimethoxyphenyl)-5,6,7,8-tetrahydro-2-(succinimidomethyl)thieno[2,3-b:5,4-c']dipyridine], in data set [1], the “Residue (%)” value was found to be 87.8%. In addition, the “Swelling suppression rate (%)” value in the data set on Rat Adjuvant Arthritis was 92%. As for `COc1ccc(-c2c(Br)c(CN3C(=O)CCC3=O)nc3sc4c(c23)CCNC4)cc1` [Example 4, 3-bromo-5,6,7,8-tetrahydro-4-(4-methoxyphenyl)-2-(succinimidomethyl)thieno[2,3-b:5,4-c']dipyridine], the “Swelling suppression rate (%)” value with Rat Adjuvant Arthritis is 85%. As to `CCOc1ccc(-c2c(Cl)c(CN3C(=O)CCC3=O)nc3sc4c(c23)CCNC4)cc1` [Example 11, 3-chloro-4-(4-ethoxyphenyl)-5,6,7,8-tetrahydro-2-(succinimidomethyl)thieno[2,3-b:5,4-c']dipyridine], the “Residue (%)” value in data set [1] is recorded as 94.1%. In the data set with Rat Adjuvant Arthritis, the “Swelling suppression rate (%)” value was found to be 98%. As for `O=C1CCC(=O)N1Cc1nc2sc3c(c2c(-c2ccc(O)cc2)c1Cl)CCNC3` [Example 15, 3-chloro-4-(4-hydroxyphenyl)-5,6,7,8-tetrahydro-2-(succinimidomethyl)thieno[2,3-b:5,4-c']dipyridine], the “Residue (%)” value in data set [1] is given as 96.3%. Consider `COc1ccc(-c2c(Cl)c(CN3C(=O)CCC3=O)nc3sc4c(c23)CCN(C(C)=O)C4)cc1OC` [Example 18, 7-acetyl-3-chloro-4-(3,4-dimethoxyphenyl)-5,6,7,8-tetrahydro-2-(succinimidomethyl)thieno[2,3-b:5,4-c']dipyridine], for which the “Swelling suppression rate (%)” value in the data set on Rat Adjuvant Arthritis is 92%. In the case of `COc1cc(-c2c(Cl)c(CN3C(=O)CCC3=O)nc3sc4c(c23)CCN(C(C)=O)C4)ccc1O` [Example 22, 7-acetyl-3-chloro-5,6,7,8-tetrahydro-4-(4-hydroxy-3-methoxyphenyl)-2-(succinimidomethyl)thieno[2,3-b:5,4-c']dipyridine], in the data set on Rat Adjuvant Arthritis, the “Swelling suppression rate (%)” value turned out to be 75%.
